Experiments:
Test in all cases: Cell growth inhibition assay
Type in all cases: cell-based
[1] = system: MDA-MB-361; settings: Homo sapiens, MDA-MB-361, MDA-MB-361, breast, HER2+, PIK3CA E545K; single agent; read-out: IC50 Single Agent (mean +/- std)
Method: (§1) Human breast tumor lines. BT-474, HCC1419, HCC1937, HCC1954, HCC202, KPL-1, MDA-MB-157, MDA-MB-175-VII, MDA-MB-361, MDA-MB-453, SK-BR-3, SUM225PE, UACC893, and ZR-75-1; lung tumor line, CALU-3; and melanoma line, CHL-1, were from ATCC. Human breast tumor line JIMT-1 was from European Collection of Cell Cultures (UK). Human breast tumor lines SUM149PT, SUM190PT and SUM52PE were from Asterand. These lines were cultured in RPMI 1640 medium containing 10% fetal bovine serum (FBS). A head and neck tumor line, LICR LON HN5 (HN5), a gift from the Institute of Cancer Research, Surrey, U.K, was cultured in Dulbecco's modified Eagle medium (DMEM) containing 5% FBS; KPL-4 breast tumor cell line was kindly provided by Dr Junichi Kurebayashi (Kawasaki Medical School, Okayama, Japan) and cultured in DMEM containing 5% FBS. JIMT-1 is a line derived from a patient clinically resistant to trastuzumab (Herceptin®). BT-474-J4 is a single cell clone derived from a pool of BT-474 cells that were selected to grow in lapatinib to a concentration of 3 μM.
(§2) All cells were cultured for a minimum of 72 hours prior to cell plating. Cells were assayed in a 96-well tissue culture plate (NUNC 136102) of RPMI medium containing 10% FBS for all cells at 2,000 cells per well except KPL-4 and HN5 which were plated in DMEM containing 5% FBS at 500 cells per well. Approximately 24 hours after plating, cells were exposed to ten, two-fold or three-fold serial dilutions of compound or the combination of the two agents at a constant molar to molar ratio of 1:1 Compound A to Compound B in RPMI media containing 10% FBS or DMEM containing 5% FBS. Cells were incubated in the presence of compounds for 3 days. ATP levels were determined by adding Cell Titer Glo® (Promega) according to the manufacturer's protocol. Briefly, Cell Titer Glo® was added each plate, incubated for 20 minutes then luminescent signal was read on the SpectraMax L plate reader with a 0.5 sec integration time.
(§3) Inhibition of cell growth was estimated after treatment with compound or combination of compounds for three days and comparing the signal to cells treated with vehicle (DMSO). Cell growth was calculated relative to vehicle (DMSO) treated control wells. Concentration of compound that inhibits 50% of control cell growth (IC50) was interpolated using nonlinear regression with the equation, y=(A+(B−A)/(1+(C/x)̂D))), where A is the minimum response (ymin), B is the maximum response (ymax), C is the inflection point of the curve (EC50) and D is the Hill coefficient. […]

[2] = system: KPL-4; settings: Homo sapiens, KPL4, KPL-4, breast, HER2+, PIK3CA H1047R; single agent; read-out: IC50 Single Agent (mean +/- std)
Method: as §1, §2, §3

[3] = system: UACC893; settings: Homo sapiens, UACC-893, UACC893, breast, HER2+, PIK3CA H1047R; single agent; read-out: IC50 Single Agent (mean +/- std)
Method: as §1, §2, §3

[4] = system: CHL-1; settings: Homo sapiens, CHL-1, CHL-1, melanoma, WT; single agent; read-out: IC50 Single Agent (mean +/- std)
Method: as §1, §2, §3

[5] = system: Calu-3; settings: Homo sapiens, Calu-3, Calu-3, lung, HER2+, WT; single agent; read-out: IC50 Single Agent (mean +/- std)
Method: as §1, §2, §3

[6] = system: SUM149PT; settings: Homo sapiens, breast, PTEN low, single agent, read-out: IC50 Single Agent (mean +/- std)
Method: as §1, §2, §3

[7] = system: HN5; settings: Homo sapiens, HN5, HN5, H&N, EGFR+, WT; single agent; read-out: IC50 Single Agent (mean +/- std)
Method: as §1, §2, §3

IC50 [1] | IC50 [5] | Compound | IC50 [2] | IC50 [3] | IC50 [4] | IC50 [6] | IC50 [7]
> 1 µM |  | CC(=O)Nc1cccc(-n2c(=O)n(C3CC3)c(=O)c3c(Nc4ccc(I)cc4F)n(C)c(=O)c(C)c32)c1 [Compound A, N-{3-[3-cyclopropyl-5-(2-fluoro-4-iodo-phenylamino)-6,8-dimethyl-2,4,7-trioxo-3,4,6,7-tetrahydro-2H-pyrido[4,3-d]pyrimidin-1-yl]phenyl}acetamide] | > 1 µM | > 1 µM |  |  | 
 | > 1 µM | Cn1ncc(Cl)c1-c1cc(C(=O)N[C@H](CN)Cc2ccc(F)c(F)c2)oc1Cl [Compound B, N-{(1S)-2-amino-1-[(3,4-difluorophenyl)methyl]ethyl}-5-chloro-4-(4-chloro-1-methyl-1H-pyrazol-5-yl)-2-furancarboxamide] |  |  | > 1 µM | > 1 µM | > 1 µM

— patent US20150094321A1, “COMBINATION” (GlaxoSmithKline LLC, priority 2009, published 2015)
